Values quoted from earlier work, collected in patent US20190269715A1, “COMPOSITIONS AND METHOD OF USE OF A-TYPE PROCYANIDINS” (MARS, INCORPORATED, priority 2004, published 2019).

System: tumor
Conditions: cited from earlier work

Question: With Nobotanin as the substance, how does the anti-tumor activity read?
Answer: The anti-tumor activity was “anti-tumor activity”.
